Results as given in ChEMBL document CHEMBL5291721, “A preclinical secondary pharmacology resource illuminates target-adverse drug reaction associations of marketed drugs” (Nat Commun, 2023).

Experiments:
[1] = biological target: Growth hormone secretagogue receptor type 1 (Homo sapiens, UniProt Q92847)
[2] = biological target: 5-hydroxytryptamine receptor 2B (Homo sapiens, UniProt P41595); format: functional, cell-based
[3] = biological target: Beta-1 adrenergic receptor (Homo sapiens, UniProt P08588); format: functional
Beta-1 adrenergic receptor, sequence (P08588 whole entry): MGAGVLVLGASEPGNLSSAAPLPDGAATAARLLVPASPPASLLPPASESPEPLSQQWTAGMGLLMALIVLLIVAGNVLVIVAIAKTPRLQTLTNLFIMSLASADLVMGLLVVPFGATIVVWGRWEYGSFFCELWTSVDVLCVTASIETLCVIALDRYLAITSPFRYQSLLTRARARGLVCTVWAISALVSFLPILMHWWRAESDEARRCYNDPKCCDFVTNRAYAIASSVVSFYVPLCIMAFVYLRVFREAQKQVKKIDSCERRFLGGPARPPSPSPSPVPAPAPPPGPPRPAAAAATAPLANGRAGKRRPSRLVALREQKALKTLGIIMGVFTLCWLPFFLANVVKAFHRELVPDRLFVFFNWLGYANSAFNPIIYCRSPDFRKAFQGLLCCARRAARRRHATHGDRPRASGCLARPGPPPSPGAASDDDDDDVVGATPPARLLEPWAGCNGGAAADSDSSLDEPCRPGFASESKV

Progesterone receptor = biological target: T1, Progesterone receptor (Homo sapiens, UniProt P06401); format: functional
T1 sequence (P06401 whole entry): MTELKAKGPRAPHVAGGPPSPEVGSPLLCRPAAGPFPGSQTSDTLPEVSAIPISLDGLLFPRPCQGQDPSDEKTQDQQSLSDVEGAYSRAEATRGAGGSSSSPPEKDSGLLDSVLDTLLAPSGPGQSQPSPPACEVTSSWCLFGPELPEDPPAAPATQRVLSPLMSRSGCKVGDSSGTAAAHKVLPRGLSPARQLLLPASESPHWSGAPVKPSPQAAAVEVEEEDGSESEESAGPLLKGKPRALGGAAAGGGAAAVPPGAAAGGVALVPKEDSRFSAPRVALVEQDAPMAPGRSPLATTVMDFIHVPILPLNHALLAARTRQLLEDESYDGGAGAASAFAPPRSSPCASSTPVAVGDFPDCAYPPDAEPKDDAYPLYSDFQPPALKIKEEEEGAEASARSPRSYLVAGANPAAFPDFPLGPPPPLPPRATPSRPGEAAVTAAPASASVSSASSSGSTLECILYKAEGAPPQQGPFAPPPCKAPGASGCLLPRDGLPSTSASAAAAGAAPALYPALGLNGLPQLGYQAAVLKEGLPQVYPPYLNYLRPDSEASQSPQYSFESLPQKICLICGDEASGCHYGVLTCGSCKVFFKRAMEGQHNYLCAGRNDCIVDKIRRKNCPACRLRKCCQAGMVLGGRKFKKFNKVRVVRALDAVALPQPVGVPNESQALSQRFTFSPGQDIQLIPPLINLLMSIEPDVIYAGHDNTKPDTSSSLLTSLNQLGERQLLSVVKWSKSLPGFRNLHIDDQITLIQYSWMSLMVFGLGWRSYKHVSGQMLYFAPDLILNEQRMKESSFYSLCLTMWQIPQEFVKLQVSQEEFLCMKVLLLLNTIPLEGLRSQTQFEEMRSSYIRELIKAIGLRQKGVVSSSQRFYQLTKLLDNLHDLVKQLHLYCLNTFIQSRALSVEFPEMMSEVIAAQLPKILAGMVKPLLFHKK

Melanocortin receptor 4 = Melanocortin receptor 4 (Homo sapiens, UniProt P32245)
Melanocortin receptor 4, sequence (P32245 whole entry): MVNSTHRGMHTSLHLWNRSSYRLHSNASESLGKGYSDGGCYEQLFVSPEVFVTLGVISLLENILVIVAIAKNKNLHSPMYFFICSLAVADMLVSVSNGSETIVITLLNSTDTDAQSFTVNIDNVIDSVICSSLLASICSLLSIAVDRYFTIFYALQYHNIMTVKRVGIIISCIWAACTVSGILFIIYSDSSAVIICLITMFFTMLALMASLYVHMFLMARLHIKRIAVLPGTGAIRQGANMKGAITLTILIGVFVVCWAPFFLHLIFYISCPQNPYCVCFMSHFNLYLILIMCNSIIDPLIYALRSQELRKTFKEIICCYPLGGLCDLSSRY

[4] = biological target: T2, Cholecystokinin receptor type A (Homo sapiens, UniProt P32238)
T2 sequence (P32238 whole entry): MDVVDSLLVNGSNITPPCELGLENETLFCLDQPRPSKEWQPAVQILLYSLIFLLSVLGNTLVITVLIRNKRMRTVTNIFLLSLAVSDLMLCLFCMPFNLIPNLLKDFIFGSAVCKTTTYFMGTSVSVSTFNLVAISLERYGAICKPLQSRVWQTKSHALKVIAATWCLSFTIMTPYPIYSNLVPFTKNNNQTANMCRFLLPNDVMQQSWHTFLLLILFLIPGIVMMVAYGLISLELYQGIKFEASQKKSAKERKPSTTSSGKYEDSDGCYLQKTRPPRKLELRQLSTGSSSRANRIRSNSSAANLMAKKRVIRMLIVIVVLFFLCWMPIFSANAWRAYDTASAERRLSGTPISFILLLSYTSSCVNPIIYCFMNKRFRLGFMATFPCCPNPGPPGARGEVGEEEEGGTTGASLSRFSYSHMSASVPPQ

[5] = biological target: T3, Alpha-1A adrenergic receptor (Homo sapiens, UniProt P35348)
T3 sequence (P35348 whole entry): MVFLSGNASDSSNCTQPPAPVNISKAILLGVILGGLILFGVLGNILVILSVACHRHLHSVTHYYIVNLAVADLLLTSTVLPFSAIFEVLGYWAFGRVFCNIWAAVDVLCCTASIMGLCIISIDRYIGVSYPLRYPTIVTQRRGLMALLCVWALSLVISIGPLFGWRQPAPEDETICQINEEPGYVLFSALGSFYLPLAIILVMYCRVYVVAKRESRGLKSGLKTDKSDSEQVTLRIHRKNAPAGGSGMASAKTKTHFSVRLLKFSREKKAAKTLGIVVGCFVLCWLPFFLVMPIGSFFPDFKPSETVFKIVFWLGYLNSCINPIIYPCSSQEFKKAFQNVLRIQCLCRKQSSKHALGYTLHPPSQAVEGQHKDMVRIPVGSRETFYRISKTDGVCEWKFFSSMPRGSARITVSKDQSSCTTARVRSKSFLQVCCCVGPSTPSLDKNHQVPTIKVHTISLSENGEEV

Cannabinoid receptor 1 = Cannabinoid receptor 1 (Homo sapiens, UniProt P21554)
Cannabinoid receptor 1, sequence (P21554 whole entry): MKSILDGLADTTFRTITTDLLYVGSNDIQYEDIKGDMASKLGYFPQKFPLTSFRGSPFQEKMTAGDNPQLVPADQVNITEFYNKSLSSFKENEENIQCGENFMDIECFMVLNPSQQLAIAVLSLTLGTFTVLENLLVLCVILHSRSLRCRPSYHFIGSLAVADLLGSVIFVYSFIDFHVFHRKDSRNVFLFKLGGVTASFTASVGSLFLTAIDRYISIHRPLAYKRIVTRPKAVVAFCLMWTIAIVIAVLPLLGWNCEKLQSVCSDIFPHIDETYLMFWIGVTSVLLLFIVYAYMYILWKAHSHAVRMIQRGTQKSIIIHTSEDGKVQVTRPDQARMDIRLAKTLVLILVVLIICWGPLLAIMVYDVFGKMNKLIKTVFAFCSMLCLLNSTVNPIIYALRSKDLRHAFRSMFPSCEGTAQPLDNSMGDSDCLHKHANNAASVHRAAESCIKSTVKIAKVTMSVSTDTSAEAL

Vasopressin V1a receptor = Vasopressin V1a receptor (Homo sapiens, UniProt P37288)
Vasopressin V1a receptor, sequence (P37288 whole entry): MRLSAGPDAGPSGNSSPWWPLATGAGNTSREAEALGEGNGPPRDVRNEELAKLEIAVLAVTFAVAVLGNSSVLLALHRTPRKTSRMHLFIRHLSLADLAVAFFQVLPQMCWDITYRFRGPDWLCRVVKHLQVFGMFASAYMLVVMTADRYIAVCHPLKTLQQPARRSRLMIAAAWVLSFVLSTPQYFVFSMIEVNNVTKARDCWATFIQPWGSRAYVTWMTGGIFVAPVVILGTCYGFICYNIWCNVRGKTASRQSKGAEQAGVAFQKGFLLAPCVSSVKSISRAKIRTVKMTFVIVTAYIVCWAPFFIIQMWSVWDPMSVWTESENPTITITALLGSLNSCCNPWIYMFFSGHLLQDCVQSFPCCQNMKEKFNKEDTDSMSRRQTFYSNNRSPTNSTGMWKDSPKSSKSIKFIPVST

[6] = biological target: T4, Muscarinic acetylcholine receptor M1 (Homo sapiens, UniProt P11229); format: functional
T4 sequence (P11229 whole entry): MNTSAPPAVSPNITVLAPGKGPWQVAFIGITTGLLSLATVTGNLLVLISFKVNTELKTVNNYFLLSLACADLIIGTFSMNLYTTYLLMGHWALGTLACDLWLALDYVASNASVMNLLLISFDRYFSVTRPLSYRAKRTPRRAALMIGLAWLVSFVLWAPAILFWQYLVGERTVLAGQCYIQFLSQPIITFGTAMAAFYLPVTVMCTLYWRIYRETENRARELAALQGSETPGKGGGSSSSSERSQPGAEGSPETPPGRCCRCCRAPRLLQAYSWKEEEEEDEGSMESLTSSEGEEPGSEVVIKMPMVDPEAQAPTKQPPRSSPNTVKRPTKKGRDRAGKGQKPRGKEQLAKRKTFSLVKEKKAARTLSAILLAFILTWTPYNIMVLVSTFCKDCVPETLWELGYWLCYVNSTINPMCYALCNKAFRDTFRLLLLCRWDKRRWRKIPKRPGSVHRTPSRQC

Mu-type opioid receptor = Mu-type opioid receptor (Homo sapiens, UniProt P35372)
Mu-type opioid receptor, sequence (P35372 whole entry): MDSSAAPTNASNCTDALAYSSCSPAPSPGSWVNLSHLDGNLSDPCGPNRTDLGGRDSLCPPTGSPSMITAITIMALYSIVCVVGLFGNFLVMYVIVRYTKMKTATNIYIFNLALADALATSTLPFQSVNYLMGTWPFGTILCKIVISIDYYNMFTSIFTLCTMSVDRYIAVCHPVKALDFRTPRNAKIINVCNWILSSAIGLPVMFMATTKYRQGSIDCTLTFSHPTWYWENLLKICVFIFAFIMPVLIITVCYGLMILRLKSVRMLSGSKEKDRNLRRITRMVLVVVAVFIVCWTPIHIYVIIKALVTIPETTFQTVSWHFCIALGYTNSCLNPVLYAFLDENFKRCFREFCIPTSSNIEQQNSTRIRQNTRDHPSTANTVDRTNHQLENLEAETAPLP
Also: assay procedure not described here.

5-hydroxytryptamine receptor 2B, sequence (P41595 whole entry): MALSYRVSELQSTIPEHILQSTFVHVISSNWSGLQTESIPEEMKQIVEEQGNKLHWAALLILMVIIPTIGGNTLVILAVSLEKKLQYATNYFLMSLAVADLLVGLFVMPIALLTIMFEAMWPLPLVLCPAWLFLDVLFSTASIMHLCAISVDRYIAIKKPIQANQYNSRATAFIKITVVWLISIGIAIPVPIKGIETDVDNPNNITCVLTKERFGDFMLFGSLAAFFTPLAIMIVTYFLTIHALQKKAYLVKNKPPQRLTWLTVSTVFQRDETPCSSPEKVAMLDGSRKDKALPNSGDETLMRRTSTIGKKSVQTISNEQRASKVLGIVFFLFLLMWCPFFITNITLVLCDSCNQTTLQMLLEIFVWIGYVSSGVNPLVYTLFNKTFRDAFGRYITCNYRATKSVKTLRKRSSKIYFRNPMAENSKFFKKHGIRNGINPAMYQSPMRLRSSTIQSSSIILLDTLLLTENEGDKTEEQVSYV
Growth hormone secretagogue receptor type 1, sequence (Q92847 whole entry): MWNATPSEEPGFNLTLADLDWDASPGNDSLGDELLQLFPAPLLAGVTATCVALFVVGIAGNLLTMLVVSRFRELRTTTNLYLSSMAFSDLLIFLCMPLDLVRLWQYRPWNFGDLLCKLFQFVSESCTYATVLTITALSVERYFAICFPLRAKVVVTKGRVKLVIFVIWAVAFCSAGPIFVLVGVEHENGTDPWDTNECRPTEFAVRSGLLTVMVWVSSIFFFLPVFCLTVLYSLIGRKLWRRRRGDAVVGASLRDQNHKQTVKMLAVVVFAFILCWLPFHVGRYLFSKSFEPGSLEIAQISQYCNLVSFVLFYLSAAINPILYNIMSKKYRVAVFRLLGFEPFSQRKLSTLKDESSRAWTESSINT

Row | Molecule | AC50 [1] | AC50 [2] | AC50 [3] | AC50 (Progesterone receptor) | AC50 (Melanocortin receptor 4) | AC50 [4] | AC50 [5] | AC50 (Cannabinoid receptor 1) | AC50 (Vasopressin V1a receptor) | AC50 [6] | AC50 (Mu-type opioid receptor)
1 | CC(=O)O[C@@]12CO[C@@H]1C[C@H](O)[C@@]1(C)C(=O)[C@H](O)C3=C(C)[C@@H](OC(=O)[C@H](O)[C@@H](NC(=O)OC(C)(C)C)c4ccccc4)C[C@@](O)([C@@H](OC(=O)c4ccccc4)[C@H]21)C3(C)C [DOCETAXEL ANHYDROUS] | > 30 µM | > 30 µM | > 30 µM | > 30 µM | > 30 µM | > 30 µM | > 30 µM | > 30 µM |  |  | 
2 | O=C1NCCN1CCN1CCC(c2cn(-c3ccc(F)cc3)c3ccc(Cl)cc23)CC1 [SERTINDOLE] | 28 µM | > 30 µM |  | > 30 µM |  | > 30 µM | 0.017 µM |  | > 30 µM | 5 µM | 
3 | CCOC(=O)[C@H](CCc1ccccc1)N[C@H]1CCCN2CCC[C@@H](C(=O)O)N2C1=O [CILAZAPRIL] | > 30 µM | > 30 µM | > 30 µM | > 30 µM |  | > 30 µM |  |  | > 30 µM | > 30 µM | 
4 | COc1ccc2c(c1)c(CC(=O)OCC(=O)O)c(C)n2C(=O)c1ccc(Cl)cc1 [ACEMETACIN] | > 30 µM | > 30 µM | > 30 µM | > 30 µM |  | > 30 µM |  |  |  |  | 
5 | COC(=O)[C@H]1[C@@H](OC(=O)c2ccccc2)C[C@@H]2CC[C@H]1N2C [COCAINE] | > 30 µM | > 30 µM | > 30 µM | > 30 µM |  | > 30 µM |  |  | > 30 µM | > 30 µM | 
6 | Cc1cc2c(OCC(CNC(C)(C)C)OC(=O)c3ccccc3)cccc2[nH]1 (configuration not stated) [BOPINDOLOL] | 16 µM | > 30 µM | 0.0048 µM | > 30 µM |  | > 30 µM |  |  | > 30 µM |  | 
7 | O=C(OCCN1CCOCC1)c1cccnc1Nc1cccc(C(F)(F)F)c1 [MORNIFLUMATE] | > 30 µM | > 30 µM | > 30 µM | > 30 µM |  | > 30 µM |  |  | > 30 µM | > 30 µM | 
8 | COc1ccc(C(=O)NCc2ccc(OCCN(C)C)cc2)cc1OC [ITOPRIDE] | > 30 µM | > 30 µM | > 30 µM | > 30 µM |  | > 30 µM |  |  | > 30 µM | > 30 µM | 
9 | CN1C(=O)COc2c(C(=O)NC3CN4CCC3CC4)cc(Cl)cc21 (configuration not stated) [AZASETRON] | > 30 µM | > 30 µM | > 30 µM | > 30 µM |  | > 30 µM |  |  | > 30 µM |  | 
10 | CC(C)(Oc1ccc(C2CC2(Cl)Cl)cc1)C(=O)O (configuration not stated) [CIPROFIBRATE] | > 30 µM | > 30 µM | > 30 µM | > 30 µM |  | > 30 µM |  |  |  |  | 
11 | C1COC(NC(C2CC2)C2CC2)=N1 [RILMENIDINE] | > 30 µM | > 10 µM | > 10 µM |  | > 30 µM | > 30 µM | 4.39 µM |  | > 30 µM | > 10 µM | > 30 µM
12 | CCCCCCCCCCCC[N+](C)(C)CCOc1ccccc1 [DOMIPHEN] | 5.7 µM | > 30 µM | 3.1 µM | > 30 µM |  | > 30 µM |  |  | 11 µM | 8.9 µM | 
13 | C#CCN[C@@H]1CCc2ccccc21 [RASAGILINE] | > 30 µM | > 30 µM | > 30 µM | > 30 µM | > 30 µM | > 30 µM | 20 µM | > 30 µM | > 30 µM | > 30 µM | 
14 | CN1CC[C@]23CCCC[C@H]2[C@H]1Cc1ccc(O)cc13 [LEVORPHANOL] | > 10 µM | > 10 µM | > 10 µM | > 10 µM | > 10 µM | > 10 µM |  | > 10 µM | > 10 µM | > 30 µM | 
15 | CC[C@]1(O)C[C@@H]2CN(CCc3c([nH]c4ccccc34)[C@@](C(=O)OC)(c3cc4c(cc3OC)N(C)[C@H]3[C@@](O)(C(N)=O)[C@H](O)[C@]5(CC)C=CCN6CC[C@]43[C@@H]65)C2)C1 [VINDESINE] | 6.5 µM | > 30 µM | > 30 µM | > 30 µM |  | > 30 µM |  | > 30 µM |  |  | 
16 | Cc1c(O)c(=O)ccn1C [DEFERIPRONE] | > 30 µM | > 30 µM | > 30 µM | > 30 µM |  | > 30 µM |  |  |  |  | 
17 | CCOc1cc(N)c([N+](=O)[O-])cc1C(=O)NC1CCN(CC2CC=CCC2)CC1 (configuration not stated) [CINITAPRIDE] | > 30 µM | > 30 µM | > 30 µM | > 30 µM |  | > 30 µM |  |  | > 30 µM | 14 µM | 
18 | TOCOFERSOLAN | > 30 µM | > 30 µM | > 30 µM | > 30 µM |  | > 30 µM |  |  | > 30 µM | > 30 µM | 
19 | CCCCCCCCOc1ccccc1C(=O)Nc1ccc(C(=O)OCC[N+](C)(CC)CC)cc1 [OTILONIUM BROMIDE] | 7.6 µM | 12 µM | 11 µM | > 30 µM |  | > 30 µM |  |  | 13 µM | 1.3 µM | 
20 | O=C(C[S+]([O-])C(c1ccccc1)c1ccccc1)NO (configuration not stated) | > 30 µM | > 30 µM | > 30 µM | > 30 µM |  | > 30 µM |  |  | > 30 µM | > 30 µM | 
21 | CCCCN1CCCCC1C(=O)Nc1c(C)cccc1C (configuration not stated) [BUPIVACAINE] | > 30 µM | > 30 µM | > 30 µM | > 30 µM |  | > 30 µM |  |  |  |  | 
22 | Cc1nc2ccc(CN(C)c3ccc(C(=O)N[C@@H](CCC(=O)O)C(=O)O)s3)cc2c(=O)[nH]1 [RALTITREXED] | > 30 µM | > 30 µM | > 30 µM | > 30 µM |  | > 30 µM |  | > 30 µM | > 30 µM | > 30 µM | 
